Reference: paper PMC11314561, “Design and Synthesis of Novel Aminoindazole-pyrrolo[2,3-b]pyridine Inhibitors of IKKα That Selectively Perturb Cellular Non-Canonical NF-κB Signalling” (Molecules, 2024)

How the values were obtained:
Test in all cases: kinase panel
Assay type in all cases: biochemical
[1] = target: Fes(h) (Homo sapiens, UniProt P07332)
Outline: (§1)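 Percentage inhibition was recorded for each compound against a broad kinase panel of 231 enzymes. Because of its close structural resemblance to another analogue, one compound was screened against 98 chosen kinases.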

[2] = target: DAPK1(h) (Homo sapiens, UniProt P53355)
Outline: as §1

[3] = target: CDK2/cyclinA(h) (Homo sapiens, UniProt P24941)
Outline: as §1

[4] = target: TrkA(h) (Homo sapiens, UniProt P04629)
Outline: as §1

[5] = target: T1, DYRK2(h) (Homo sapiens, UniProt Q92630)
T1 sequence (Q92630 1-601): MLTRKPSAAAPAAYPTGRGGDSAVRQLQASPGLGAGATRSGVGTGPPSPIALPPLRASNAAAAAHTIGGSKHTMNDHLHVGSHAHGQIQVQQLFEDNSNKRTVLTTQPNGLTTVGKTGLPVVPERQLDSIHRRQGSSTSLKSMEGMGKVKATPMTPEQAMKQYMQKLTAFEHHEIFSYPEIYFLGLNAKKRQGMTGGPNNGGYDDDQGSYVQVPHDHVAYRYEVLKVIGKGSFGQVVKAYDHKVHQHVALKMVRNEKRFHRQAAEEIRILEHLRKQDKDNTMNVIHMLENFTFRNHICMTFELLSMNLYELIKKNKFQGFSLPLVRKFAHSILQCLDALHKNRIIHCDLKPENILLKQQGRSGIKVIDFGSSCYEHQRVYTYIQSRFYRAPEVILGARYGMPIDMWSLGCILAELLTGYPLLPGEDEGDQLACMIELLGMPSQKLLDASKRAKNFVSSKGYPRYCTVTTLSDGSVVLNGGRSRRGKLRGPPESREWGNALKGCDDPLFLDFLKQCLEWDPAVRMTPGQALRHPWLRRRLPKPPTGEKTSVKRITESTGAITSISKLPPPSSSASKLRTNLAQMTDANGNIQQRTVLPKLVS
Outline: as §1

[6] = target: JNK1α1(h) (Homo sapiens, UniProt P45983)
Outline: as §1

[7] = target: CDK3/cyclinE(h) (Homo sapiens, UniProt Q00526)
Outline: as §1

[8] = target: KDR(h) (Homo sapiens, UniProt P35968)
Outline: as §1

[9] = target: MAPK1(h) (Homo sapiens, UniProt P27361)
Outline: as §1

[10] = target: Aurora-B(h) (Homo sapiens, UniProt Q96GD4)
Outline: as §1

[11] = target: CaMKIIδ(h) (Homo sapiens, UniProt Q13557)
Outline: as §1

[12] = target: T2, CHK1(h) (Homo sapiens, UniProt O14757)
T2 sequence (O14757 1-476): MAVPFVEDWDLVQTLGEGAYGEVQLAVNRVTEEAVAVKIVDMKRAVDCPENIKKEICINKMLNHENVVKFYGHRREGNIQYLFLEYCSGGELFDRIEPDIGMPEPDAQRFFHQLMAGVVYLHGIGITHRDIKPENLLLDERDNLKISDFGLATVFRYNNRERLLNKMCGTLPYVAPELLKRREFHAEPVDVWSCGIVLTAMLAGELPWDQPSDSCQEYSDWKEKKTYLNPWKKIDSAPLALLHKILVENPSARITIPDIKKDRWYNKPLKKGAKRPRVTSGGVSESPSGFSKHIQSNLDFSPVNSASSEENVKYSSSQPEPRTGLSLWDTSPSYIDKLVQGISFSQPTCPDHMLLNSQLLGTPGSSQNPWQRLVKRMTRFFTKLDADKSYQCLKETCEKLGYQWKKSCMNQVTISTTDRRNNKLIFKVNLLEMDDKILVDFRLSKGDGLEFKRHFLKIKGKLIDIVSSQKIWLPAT
Outline: as §1

[13] = target: CK1δ(h) (Homo sapiens, UniProt P48730)
Outline: as §1

[14] = target: T3, TAK1(h) (Homo sapiens, UniProt O43318)
T3 sequence (O43318 1-303 limits assumed): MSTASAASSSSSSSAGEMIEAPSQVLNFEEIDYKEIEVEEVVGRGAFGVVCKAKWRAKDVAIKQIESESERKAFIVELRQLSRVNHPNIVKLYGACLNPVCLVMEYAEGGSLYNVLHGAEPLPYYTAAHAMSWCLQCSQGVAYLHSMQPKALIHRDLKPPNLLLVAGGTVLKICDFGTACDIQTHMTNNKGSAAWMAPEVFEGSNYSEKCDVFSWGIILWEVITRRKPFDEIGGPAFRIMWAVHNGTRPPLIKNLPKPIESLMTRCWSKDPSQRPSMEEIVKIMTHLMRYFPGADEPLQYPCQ
Outline: as §1

[15] = target: ROCK-I(h) (Homo sapiens, UniProt Q13464)
Outline: as §1

[16] = target: EGFR(h) (Homo sapiens, UniProt P00533)
Outline: as §1

[17] = target: Rsk1(h) (Homo sapiens, UniProt Q15418)
Outline: as §1

[18] = target: Fms(h) (Homo sapiens, UniProt P07333)
Outline: as §1

ROCK-I(h), sequence (Q13464 whole entry): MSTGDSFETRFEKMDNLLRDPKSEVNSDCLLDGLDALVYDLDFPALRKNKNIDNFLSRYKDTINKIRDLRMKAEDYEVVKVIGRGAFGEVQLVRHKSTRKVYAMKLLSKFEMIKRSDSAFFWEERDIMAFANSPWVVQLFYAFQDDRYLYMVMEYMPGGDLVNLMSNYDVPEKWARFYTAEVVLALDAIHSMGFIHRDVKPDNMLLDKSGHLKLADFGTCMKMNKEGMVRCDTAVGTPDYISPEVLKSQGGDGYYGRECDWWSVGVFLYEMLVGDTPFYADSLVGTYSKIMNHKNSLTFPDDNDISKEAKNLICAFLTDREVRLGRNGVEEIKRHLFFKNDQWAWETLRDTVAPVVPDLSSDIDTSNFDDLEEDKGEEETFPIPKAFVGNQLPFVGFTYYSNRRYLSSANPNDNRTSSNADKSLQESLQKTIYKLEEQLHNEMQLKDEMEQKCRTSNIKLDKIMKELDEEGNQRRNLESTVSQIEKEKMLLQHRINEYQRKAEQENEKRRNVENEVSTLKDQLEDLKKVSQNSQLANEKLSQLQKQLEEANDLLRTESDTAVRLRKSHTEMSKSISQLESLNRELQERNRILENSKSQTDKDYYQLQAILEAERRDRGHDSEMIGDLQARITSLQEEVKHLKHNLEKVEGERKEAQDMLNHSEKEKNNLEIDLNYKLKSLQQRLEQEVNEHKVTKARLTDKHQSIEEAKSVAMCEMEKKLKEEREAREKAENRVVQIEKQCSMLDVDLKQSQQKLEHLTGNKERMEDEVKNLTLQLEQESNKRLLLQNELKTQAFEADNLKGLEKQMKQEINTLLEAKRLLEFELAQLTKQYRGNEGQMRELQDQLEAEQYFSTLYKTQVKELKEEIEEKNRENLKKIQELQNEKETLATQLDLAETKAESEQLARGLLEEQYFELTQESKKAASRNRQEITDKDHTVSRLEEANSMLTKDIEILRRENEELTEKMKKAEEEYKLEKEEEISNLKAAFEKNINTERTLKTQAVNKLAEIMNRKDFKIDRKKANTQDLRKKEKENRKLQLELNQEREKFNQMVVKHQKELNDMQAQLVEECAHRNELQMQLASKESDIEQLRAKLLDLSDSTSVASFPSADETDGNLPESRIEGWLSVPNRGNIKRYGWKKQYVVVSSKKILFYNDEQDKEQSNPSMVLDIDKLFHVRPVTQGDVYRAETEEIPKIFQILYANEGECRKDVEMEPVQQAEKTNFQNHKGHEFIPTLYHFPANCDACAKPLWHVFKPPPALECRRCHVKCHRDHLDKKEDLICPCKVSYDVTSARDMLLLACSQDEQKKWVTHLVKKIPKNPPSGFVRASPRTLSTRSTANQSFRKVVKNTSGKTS
CaMKIIδ(h), sequence (Q13557 whole entry): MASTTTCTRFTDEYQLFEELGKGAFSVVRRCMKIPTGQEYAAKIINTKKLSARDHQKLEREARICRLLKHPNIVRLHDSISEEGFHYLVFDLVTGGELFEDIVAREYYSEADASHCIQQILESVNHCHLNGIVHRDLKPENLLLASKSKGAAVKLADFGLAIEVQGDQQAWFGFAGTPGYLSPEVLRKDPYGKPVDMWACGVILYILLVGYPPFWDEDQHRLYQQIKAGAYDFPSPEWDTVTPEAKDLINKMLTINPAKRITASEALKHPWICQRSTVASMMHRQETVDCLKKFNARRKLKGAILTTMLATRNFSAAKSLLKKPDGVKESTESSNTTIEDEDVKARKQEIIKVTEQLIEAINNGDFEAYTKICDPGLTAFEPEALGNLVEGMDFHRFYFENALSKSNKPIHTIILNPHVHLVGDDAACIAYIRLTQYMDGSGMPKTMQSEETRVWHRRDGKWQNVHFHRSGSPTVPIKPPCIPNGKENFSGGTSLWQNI
Fms(h), sequence (P07333 20-972): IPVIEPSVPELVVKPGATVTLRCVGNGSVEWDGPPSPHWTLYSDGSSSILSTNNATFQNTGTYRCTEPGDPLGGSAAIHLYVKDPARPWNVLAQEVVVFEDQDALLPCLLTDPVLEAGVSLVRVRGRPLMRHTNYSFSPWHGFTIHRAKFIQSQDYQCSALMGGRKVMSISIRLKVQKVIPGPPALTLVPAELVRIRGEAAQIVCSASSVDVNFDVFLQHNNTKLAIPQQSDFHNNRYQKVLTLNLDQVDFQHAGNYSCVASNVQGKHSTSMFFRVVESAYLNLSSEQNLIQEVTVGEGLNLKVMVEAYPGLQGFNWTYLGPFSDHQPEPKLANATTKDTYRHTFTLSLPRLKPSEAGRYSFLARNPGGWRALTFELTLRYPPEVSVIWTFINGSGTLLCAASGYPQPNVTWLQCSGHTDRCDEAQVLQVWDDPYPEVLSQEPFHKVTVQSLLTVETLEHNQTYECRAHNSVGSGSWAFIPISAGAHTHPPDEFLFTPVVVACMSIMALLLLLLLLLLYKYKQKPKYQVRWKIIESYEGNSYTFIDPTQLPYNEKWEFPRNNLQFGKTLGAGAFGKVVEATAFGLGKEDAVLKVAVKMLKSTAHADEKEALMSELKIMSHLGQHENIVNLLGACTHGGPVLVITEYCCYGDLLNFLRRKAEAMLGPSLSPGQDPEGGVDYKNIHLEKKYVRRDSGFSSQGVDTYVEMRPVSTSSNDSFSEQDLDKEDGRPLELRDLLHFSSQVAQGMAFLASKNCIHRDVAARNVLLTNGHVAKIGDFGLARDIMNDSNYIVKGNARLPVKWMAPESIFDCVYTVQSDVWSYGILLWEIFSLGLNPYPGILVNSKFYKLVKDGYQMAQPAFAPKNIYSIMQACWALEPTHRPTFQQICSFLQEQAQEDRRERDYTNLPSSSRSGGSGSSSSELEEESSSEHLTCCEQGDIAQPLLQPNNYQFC
CK1δ(h), sequence (P48730 whole entry): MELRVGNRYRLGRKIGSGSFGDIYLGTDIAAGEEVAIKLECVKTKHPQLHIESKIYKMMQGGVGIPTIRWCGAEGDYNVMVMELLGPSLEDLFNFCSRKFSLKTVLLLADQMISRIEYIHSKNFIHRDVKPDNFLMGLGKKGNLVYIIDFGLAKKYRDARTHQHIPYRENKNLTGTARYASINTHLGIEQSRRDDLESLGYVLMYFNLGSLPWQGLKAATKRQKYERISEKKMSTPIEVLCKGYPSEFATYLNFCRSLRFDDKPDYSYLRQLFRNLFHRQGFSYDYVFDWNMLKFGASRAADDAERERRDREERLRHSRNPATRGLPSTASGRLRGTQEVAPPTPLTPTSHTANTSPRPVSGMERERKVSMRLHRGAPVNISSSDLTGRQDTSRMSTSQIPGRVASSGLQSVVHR
JNK1α1(h), sequence (P45983 1-384 isoform P45983-2): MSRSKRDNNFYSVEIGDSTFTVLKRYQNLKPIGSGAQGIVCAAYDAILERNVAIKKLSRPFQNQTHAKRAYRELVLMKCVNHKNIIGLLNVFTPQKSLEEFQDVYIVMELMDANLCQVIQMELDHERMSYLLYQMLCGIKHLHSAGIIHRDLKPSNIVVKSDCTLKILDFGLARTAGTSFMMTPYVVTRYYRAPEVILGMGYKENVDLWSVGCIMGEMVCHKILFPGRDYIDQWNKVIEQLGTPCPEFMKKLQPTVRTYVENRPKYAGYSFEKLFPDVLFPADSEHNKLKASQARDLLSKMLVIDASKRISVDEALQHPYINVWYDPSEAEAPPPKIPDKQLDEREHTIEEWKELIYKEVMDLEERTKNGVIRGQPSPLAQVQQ
DAPK1(h), sequence (P53355 whole entry): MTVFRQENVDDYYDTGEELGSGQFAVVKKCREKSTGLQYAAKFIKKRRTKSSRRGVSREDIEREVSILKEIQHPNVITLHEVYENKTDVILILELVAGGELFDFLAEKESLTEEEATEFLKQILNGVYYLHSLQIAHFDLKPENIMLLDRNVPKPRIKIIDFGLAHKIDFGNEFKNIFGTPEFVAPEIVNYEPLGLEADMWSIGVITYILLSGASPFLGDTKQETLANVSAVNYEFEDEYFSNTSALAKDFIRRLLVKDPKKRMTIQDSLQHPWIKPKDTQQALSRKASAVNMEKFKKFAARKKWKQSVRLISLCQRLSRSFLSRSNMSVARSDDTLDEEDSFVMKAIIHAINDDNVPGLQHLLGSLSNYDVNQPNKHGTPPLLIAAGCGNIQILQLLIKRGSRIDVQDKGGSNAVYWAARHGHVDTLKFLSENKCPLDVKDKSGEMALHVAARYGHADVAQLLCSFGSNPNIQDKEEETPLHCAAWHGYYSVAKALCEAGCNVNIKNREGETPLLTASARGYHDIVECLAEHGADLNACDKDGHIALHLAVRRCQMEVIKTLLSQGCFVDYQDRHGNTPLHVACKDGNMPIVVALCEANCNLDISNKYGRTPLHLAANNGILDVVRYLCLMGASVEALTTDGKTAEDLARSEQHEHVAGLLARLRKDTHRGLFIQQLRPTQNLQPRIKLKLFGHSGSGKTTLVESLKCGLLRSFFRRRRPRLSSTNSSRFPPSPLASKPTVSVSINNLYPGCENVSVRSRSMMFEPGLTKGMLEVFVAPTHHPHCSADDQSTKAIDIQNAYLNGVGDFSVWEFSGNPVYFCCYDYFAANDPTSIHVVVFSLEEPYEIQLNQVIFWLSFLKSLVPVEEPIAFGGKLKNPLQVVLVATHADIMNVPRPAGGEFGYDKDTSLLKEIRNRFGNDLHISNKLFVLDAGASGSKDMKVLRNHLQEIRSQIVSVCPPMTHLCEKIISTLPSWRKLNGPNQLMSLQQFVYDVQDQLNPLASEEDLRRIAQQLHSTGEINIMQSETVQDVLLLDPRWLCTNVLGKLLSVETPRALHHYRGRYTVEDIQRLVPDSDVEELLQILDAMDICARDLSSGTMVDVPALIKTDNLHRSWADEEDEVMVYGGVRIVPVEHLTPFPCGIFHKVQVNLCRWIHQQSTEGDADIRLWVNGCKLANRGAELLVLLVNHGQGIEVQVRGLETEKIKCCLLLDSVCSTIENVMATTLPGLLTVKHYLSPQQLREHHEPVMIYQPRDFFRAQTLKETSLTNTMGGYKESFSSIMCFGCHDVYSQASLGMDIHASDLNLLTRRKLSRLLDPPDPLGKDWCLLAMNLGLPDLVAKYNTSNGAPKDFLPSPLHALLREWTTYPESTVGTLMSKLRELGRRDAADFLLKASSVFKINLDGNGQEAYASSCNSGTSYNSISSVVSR

Row | inhibition at 1 µM [1] | inhibition at 1 µM [2] | inhibition at 1 µM [3] | inhibition at 1 µM [4] | inhibition at 1 µM [5] | inhibition at 1 µM [6] | inhibition at 1 µM [7] | inhibition at 1 µM [8] | inhibition at 1 µM [9] | inhibition at 1 µM [10] | inhibition at 1 µM [11] | inhibition at 1 µM [12] | inhibition at 1 µM [13] | inhibition at 1 µM [14] | inhibition at 1 µM [15] | inhibition at 1 µM [16] | inhibition at 1 µM [17] | inhibition at 1 µM [18] | SMILES
1 | 80% | -1% | 99% | 71% | 43% | 80% | 94% | 93% | 46% | 99% | 80% | -2% | 58% | 28% | 13% | 13% | 38% | 91% | Nc1n[nH]c2ccc(-c3ccnc4[nH]c(-c5ccccc5)cc34)cc12 [Compound 4]
2 | 50% | -15% | 61% | 29% | 14% | 12% | 45% | 42% | -4% | 92% | 61% | -2% | 14% | 6% | 28% | 5% | 2% | 58% | Nc1n[nH]c2ccc(-c3ccnc4[nH]c(-c5cccc(OCc6ccccc6)c5)cc34)cc12 [Compound 5r [SU1261]]
3 | -31% | 4% | 37% | -11% | 9% | 25% | 37% | 26% | 18% | 71% | 37% | -9% | 5% | 0% | 10% | -8% | -18% | 10% | Nc1n[nH]c2ccc(-c3ccnc4[nH]c(-c5ccnc(OCc6ccccc6)c5)cc34)cc12 [Compound 6g [SU1349]]
